“And” between values parts separate entries of the source, which are not always exact repeats. Equal values may be shown once. Records with an inconclusive call do not appear.
System: BDF1 mice, s.c. Lewis lung carcinoma, T/C %
Test: NCI In Vivo Anticancer Drug Screen. Data for tumor model Lewis Lung Carcinoma (subcutaneous) in B6D2F1 (BDF1) mice
Outline: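 Readout: survival or tumor size, expressed as treated (T) over vehicle control (C). Transplantable tumor implanted in mice; compound given to the treated group.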

In the case of O=NN(CCCl)C(=O)NCCCl, the T/C (endpoint: mean tumor weight, dose: 1.57 mg/kg/injection, schedule: Q01DX011 (ip), vehicle: saline, higher = larger tumour) is reported as 78 % of control, the T/C (endpoint: mean tumor weight, dose: 3.13 mg/kg/injection, schedule: Q01DX011 (ip), vehicle: saline, higher = larger tumour) is reported as 56 % of control and the T/C (endpoint: mean tumor weight, dose: 4.0 mg/kg/injection, schedule: Q01DX011 (ip), vehicle: other, higher = larger tumour) is reported as 41 % of control. For the same compound, the T/C (endpoint: mean tumor weight, dose: 6.25 mg/kg/injection, schedule: Q01DX011 (ip), vehicle: saline, higher = larger tumour) was 4 % of control and 14 % of control, the T/C (endpoint: mean tumor weight, dose: 12.5 mg/kg/injection, schedule: Q01DX011 (ip), vehicle: saline, higher = larger tumour) was 3 % of control and the T/C (endpoint: median survival time, dose: 0.5 mg/kg/injection, schedule: Q08HX024 (ip), vehicle: Klucel (hydroxypropylcellulose) (HPC), higher = longer survival) was 90 % of control. For the same compound, the T/C (endpoint: median survival time, dose: 1.0 mg/kg/injection, schedule: Q08HX024 (ip), vehicle: Klucel (hydroxypropylcellulose) (HPC), higher = longer survival) was 91 % of control, the T/C (endpoint: median survival time, dose: 5.0 mg/kg/injection, schedule: Q01DX001 (ip), vehicle: Klucel (hydroxypropylcellulose) (HPC), higher = longer survival) was 108 % of control and the T/C (endpoint: median survival time, dose: 5.0 mg/kg/injection, schedule: Q01DX001 (ip), vehicle: saline + alcohol, higher = longer survival) was 100 % of control and 104 % of control. For the same compound, the T/C (endpoint: median survival time, dose: 5.0 mg/kg/injection, schedule: Q01DX001 (ip), vehicle: saline with Tween-80, higher = longer survival) was 113 % of control, the T/C (endpoint: median survival time, dose: 6.7 mg/kg/injection, schedule: Q01DX005 (ip), vehicle: saline + alcohol, higher = longer survival) was 113 % of control and the T/C (endpoint: median survival time, dose: 10.0 mg/kg/injection, schedule: Q01DX001 (ip), vehicle: Klucel (hydroxypropylcellulose) (HPC), higher = longer survival) was 120 % of control. The T/C (endpoint: median survival time, dose: 10.0 mg/kg/injection, schedule: Q01DX001 (ip), vehicle: saline + alcohol, higher = longer survival) was 96 % of control and 116 % of control, the T/C (endpoint: median survival time, dose: 10.0 mg/kg/injection, schedule: Q01DX001 (ip), vehicle: saline with Tween-80, higher = longer survival) was 99 % of control and 102 % of control and the T/C (endpoint: median survival time, dose: 13.0 mg/kg/injection, schedule: Q01DX001 (ip), vehicle: saline + alcohol, higher = longer survival) was 100 % of control. The T/C (endpoint: median survival time, dose: 13.5 mg/kg/injection, schedule: Q01DX001 (ip), vehicle: Klucel (hydroxypropylcellulose) (HPC), higher = longer survival) was 160 % of control, the T/C (endpoint: median survival time, dose: 15.0 mg/kg/injection, schedule: Q01DX005 (ip), vehicle: saline + alcohol, higher = longer survival) was 71 % of control and 85 % of control and the T/C (endpoint: median survival time, dose: 20.0 mg/kg/injection, schedule: Q01DX001 (ip), vehicle: Klucel (hydroxypropylcellulose) (HPC), higher = longer survival) was 117 % of control. For the same compound, the T/C (endpoint: median survival time, dose: 20.0 mg/kg/injection, schedule: Q01DX001 (ip), vehicle: saline + alcohol, higher = longer survival) was 104 % of control and 121 % of control, the T/C (endpoint: median survival time, dose: 20.0 mg/kg/injection, schedule: Q01DX001 (ip), vehicle: saline with Tween-80, higher = longer survival) was 111 % of control and 119 % of control and the T/C (endpoint: median survival time, dose: 26.0 mg/kg/injection, schedule: Q01DX001 (ip), vehicle: saline + alcohol, higher = longer survival) was 117 % of control. For the same compound, the T/C (endpoint: median survival time, dose: 27.0 mg/kg/injection, schedule: Q01DX001 (ip), vehicle: Klucel (hydroxypropylcellulose) (HPC), higher = longer survival) was 105 % of control, the T/C (endpoint: median survival time, dose: 30.0 mg/kg/injection, schedule: Q01DX001 (ip), vehicle: saline + alcohol, higher = longer survival) was 163 % of control and the T/C (endpoint: median survival time, dose: 39.0 mg/kg/injection, schedule: Q01DX001 (ip), vehicle: saline + alcohol, higher = longer survival) was 100 % of control. The T/C (endpoint: median survival time, dose: 40.0 mg/kg/injection, schedule: Q01DX001 (ip), vehicle: Klucel (hydroxypropylcellulose) (HPC), higher = longer survival) was 156 % of control, the T/C (endpoint: median survival time, dose: 40.0 mg/kg/injection, schedule: Q01DX001 (ip), vehicle: saline with Tween-80, higher = longer survival) was 121 % of control and the T/C (endpoint: median survival time, dose: 80.0 mg/kg/injection, schedule: Q01DX001 (ip), vehicle: Klucel (hydroxypropylcellulose) (HPC), higher = longer survival) was 217 % of control. The T/C (endpoint: median survival time, dose: 80.0 mg/kg/injection, schedule: Q01DX001 (ip), vehicle: saline + alcohol, higher = longer survival) was 95 % of control, the T/C (endpoint: median tumor weight (est.), dose: 14.0 mg/kg/injection, schedule: Q01DX001 (ip), vehicle: saline + alcohol, higher = larger tumour) was 70 % of control and the T/C (endpoint: median tumor weight (est.), dose: 27.0 mg/kg/injection, schedule: Q01DX001 (ip), vehicle: saline + alcohol, higher = larger tumour) was 65 % of control. The T/C (endpoint: median tumor weight (est.), dose: 41.0 mg/kg/injection, schedule: Q01DX001 (ip), vehicle: saline + alcohol, higher = larger tumour) was 34 % of control.
Clc1[nH]nc2ccccc12 was tested, and the T/C (endpoint: mean tumor weight, dose: 125.0 mg/kg/injection, schedule: Q01DX011 (ip), vehicle: saline, higher = larger tumour) was 80 % of control and 85 % of control and the T/C (endpoint: mean tumor weight, dose: 250.0 mg/kg/injection, schedule: Q01DX011 (ip), vehicle: saline, higher = larger tumour) was 45 % of control and 67 % of control.
CC1(C)C(CC(=O)O)CC1C(=O)O (centres undefined) was tested, and the T/C (endpoint: mean tumor weight, dose: 166.0 mg/kg/injection, schedule: Q01DX011 (ip), vehicle: other, higher = larger tumour) was 78 % of control.
For CC1CN=C(C(=O)C(C)C2CCC3C4CC=C5CC(O)CCC5(C)C4CCC23C)C1 (centres undefined), the T/C (endpoint: mean tumor weight, dose: 100.0 mg/kg/injection, schedule: Q01DX011 (sc), vehicle: steriod suspending solution, higher = larger tumour) was 118 % of control.
With C/C=C/c1cc2n(c1)C(=O)c1cc(OC3OC(C)C(NC)C(C)(O)C3O)c(C)c(O)c1NC2O (centres undefined) the T/C (endpoint: median survival time, dose: 2.0 micrograms/kg/injection, schedule: Q04DX003 (ip), vehicle: saline, higher = longer survival) was 102 % of control, the T/C (endpoint: median survival time, dose: 4.0 micrograms/kg/injection, schedule: Q04DX003 (ip), vehicle: saline, higher = longer survival) was 92 % of control and the T/C (endpoint: median survival time, dose: 8.0 micrograms/kg/injection, schedule: Q04DX003 (ip), vehicle: saline, higher = longer survival) was 103 % of control. The T/C (endpoint: median survival time, dose: 16.0 micrograms/kg/injection, schedule: Q04DX003 (ip), vehicle: saline, higher = longer survival) was 95 % of control.

Reference: PubChem BioAssay AID270 (DTP/NCI, 2004)
